Data taken from PMC4950319, “Kinetic and structural characterization of amyloid‐β peptide hydrolysis by human angiotensin‐1‐converting enzyme” (The Febs Journal, 2016).
Where “and” joins values, the source holds several entries; their conditions need not be identical. Equal values may be shown once. Where no end group is shown, it is not given here. The star is where a group is joined. Cbz = O=C(OCc1ccccc1)*

Assays:
[1] = system: sACE (human ACE); conditions: cited from earlier work; for interdomain cooperativity: human ACE enzymes
From the text: Due to the C‐domain's poorer hydrolysis of Aβ we can infer that the C‐domain appears ...

[2] = biological target: T1, C‐sACE (Homo sapiens, UniProt P12821, H390K/H394K); assay: Aβ(4–10)Q hydrolysis by C‐sACE, fluorogenic assay; assay type: biochemical; conditions: fluorescence λex 320 nm, λem 420 nm, 50 mM Hepes pH 7.5, 100 mM NaCl, 10 μM ZnSO4, substrate 0 to 30 μM, 45 min, 37 °C, enzyme 1.50 pmol, n = 3
T1 construct: Both constructs have the complete signal, transmembrane and stalk region corresponding to full‐length sACE; made in house; host or cells: CHO cells; purified from cell lysate
From the text: (§1) Fluorogenic substrates designed around the established N‐terminal Asp7‐Ser8 cleavage site of the full‐length Aβ(1–42) were used to develop a higher throughput assay. There are two variations of the short fluorogenic peptides: Aβ(4–10)Q (Abz‐FRHDSG(Q)‐EDDnp) which has an N‐terminal Abz donor and a C‐terminal EDDnp quencher group attached to an additional Gln residue. The second peptide, Aβ(4–10)Y (Abz‐FRHDSG‐(NT)) has a different quencher molecule, NT, which substitutes for the naturally occurring Tyr residue.
(§2) Hydrolysis of the fluorogenic peptide Abz‐FRHDSG(Q)‐EDDnp (Aβ(4–10)Q, obtained from A. Carmona, Universidade Federal de São Paulo, Brazil) was performed in Hepes buffer (50 mM Hepes pH 7.5, 100 mM NaCl, 10 μM ZnSO4 buffer) with 150 μL enzyme (at final concentrations within 10% hydrolysis of total substrate; see Table 2) and equal volume of substrate ranging from 0 to 30 μM. The assay is a modified form of the continuous assay 7 where the assay is set up on ice in triplicate in a 96‐well plate. The baseline fluorescence was at time zero and then the substrate was incubated at 37 °C and fluorescence read at the 45 min time point on a Cary Eclipse spectrofluorimeter (Varian Inc.) at λex = 320 nm and λem = 420 nm. Again, kinetic constants were calculated using the Michaelis–Menten method with […] PRISM software (v4.01, GraphPad Prism®). The detected fluorescence was converted to picamoles product formed through the slope of a calibration curve of Abz‐Gly. A correction curve was also applied to correct the data for the inner filter effect 70.
(§3) Statistical analysis of the data was determined by Student's t test. Differences with P < 0.05 were considered statistically significant. Fractional error was calculated for the k cat/K m ratio with the following equation: ΔZ=ZΔa/a^2+Δb/b^2 where Z represents the mean k cat/K m and ΔZ represents the fractional error. The Δa represents the SEM of the mean k cat (a). Similarly, Δb represents the SEM of the mean K m (b).

[3] = biological target: T2, N‐sACE (Homo sapiens, UniProt P12821, H988K/H992K); assay: Aβ(4–10)Q hydrolysis by N‐sACE, fluorogenic assay; assay type: biochemical; conditions: fluorescence λex 320 nm, λem 420 nm, 50 mM Hepes pH 7.5, 100 mM NaCl, 10 μM ZnSO4, substrate 0 to 30 μM, 45 min, 37 °C, enzyme 9.00 pmol, n = 3
T2 construct: Both constructs have the complete signal, transmembrane and stalk region corresponding to full‐length sACE; made in house; host or cells: CHO cells; purified from cell lysate
From the text: as §1, §2, §3

[4] = system: CC‐sACE; assay: Aβ(4–10)Q hydrolysis by CC‐sACE, fluorogenic assay; assay type: biochemical, human; conditions: Hepes pH 7.5, 37 °C, 45 min, fluorescence
From the text: as §1
as §2, with “The assay is a modified form of the continuous assay 7 where the assay is set up on ice in triplicate in a 96‐well plate.” left out, “PRISM software (v4.01, GraphPad Prism®).” left out, “A correction curve was also applied to correct the data for the inner filter effect 70.” left out
Statistical analysis of the data was determined by Student's t test. […]

[5] = system: ACE variants; assay: Cleavage‐site analysis by MALDI‐TOF MS, kinetic assay conditions; assay type: biochemical, human; conditions: MALDI‐TOF MS of products within kinetic assay conditions; Aβ(1–16): all ACE variants except Cdom; Aβ(4–10) peptides: Cdom and CC‐sACE not analysed
Protocol: The mass spectrometry was analysed at the Centre for Proteomic and Genomic Research (Cape Town, South Africa). Briefly, the collected peptides were spotted onto a 10 mg·mL^−1 α‐cyano‐4‐hydroxycinnamic acid matrix (Fluka, USA) in 80% ACN, 0.2% TFA for a final concentration of 5 mg·mL^−1 matrix in 40% ACN, 0.1% TFA, 10 mM NH4H2PO4. Mass spectrometry was performed with a 4800 MALDI‐TOF/TOF (Applied Biosytems) with all spectra recorded in positive reflector mode. Spectra were generated with 400 laser shots/spectrum at a laser intensity of 3800 (arbitrary units) with a grid voltage of 16 kV.

[6] = biological target: T3, sACE (Homo sapiens, UniProt P12821); assay: Interdomain cooperativity in hydrolysis of Aβ substrates; assay type: biochemical; conditions: two domains of sACE, truncated and full‐length constructs compared
T3 construct: made in house; host or cells: CHO cells; purified from cell lysate
Protocol: Mixtures were separated on a Poroshell 120 EC‐18 column with a 2.7 μm pore size. The reaction consists of 25 μL substrate incubated with 25 μL enzyme for 15 min at 37 °C and was stopped with the addition of 10 μL of 0.25% trifluoroacetic acid (TFA). The total reaction (60 μL) was cleared of contaminants on a spin column (GHP Nanosep® MF Centrifugal Device 0.45 μm pore size) and run on the HPLC. Kinetic parameters were determined through the fitting of initial rates to the Michaelis–Menten equation with […] PRISM software (v 4.01, GraphPad Prism®).
The reaction was incubated for 15 min at 37 °C and stopped with the addition of 10 μL 0.25% TFA to make up a total volume of 60 μL. The reactions were performed in triplicate and 50 μL injections were analysed via HPLC (Agilent Technologies) across a gradient of 0.1% TFA and 2% ACN in water to 0.1% TFA, 95% ACN. A calibration curve was set up to convert the product peak area to picomoles product formed, through the complete hydrolysis of the substrate with the N‐domain. […] Kinetic constants were calculated using the Michaelis–Menten method using […] […]
The assay is a modified form of the continuous assay 7 where the assay is set up on ice in triplicate in a 96‐well plate. The baseline fluorescence was at time zero and then the substrate was incubated at 37 °C and fluorescence read at the 45 min time point on a Cary Eclipse spectrofluorimeter (Varian Inc.) at λex = 320 nm and λem = 420 nm. Again, kinetic constants were calculated using the Michaelis–Menten method with […] […] The detected fluorescence was converted to picamoles product formed through the slope of a calibration curve of Abz‐Gly. […]
An alternative fluorogenic peptide, Abz‐FRHDSG‐(NT) (BIOPEP™ South Africa) was assayed, with 100 μL enzyme and 100 μL substrate (at a final enzyme concentration within 10% hydrolysis of total substrate; see Table 3) as above, in 96‐well plates. The samples were read at the 5 min time point on a Cary Eclipse spectrofluorimeter (Varian Inc.) at λex = 320 nm and λem = 420 nm. Kinetic constants, inner filter effect and standard curves were calculated as above.

[7] = biological target: T4, Ndom (soluble form of the N‐domain of sACE) (Homo sapiens, UniProt P12821); assay: Aβ(4–10)Q hydrolysis by Ndom, fluorogenic assay; assay type: biochemical; conditions: fluorescence λex 320 nm, λem 420 nm, 50 mM Hepes pH 7.5, 100 mM NaCl, 10 μM ZnSO4, substrate 0 to 30 μM, 45 min, 37 °C, enzyme 0.60 pmol, n = 3
T4 construct: made in house; host or cells: CHO cells
From the text: as §1, §2, §3

[8] = biological target: T3, sACE; assay: Aβ(4–10)Q hydrolysis by sACE, fluorogenic assay; assay type: biochemical; conditions: fluorescence λex 320 nm, λem 420 nm, 50 mM Hepes pH 7.5, 100 mM NaCl, 10 μM ZnSO4, substrate 0 to 30 μM, 45 min, 37 °C, enzyme 1.50 pmol, n = 3
From the text: as §1, §2, §3

[9] = mean ± fractional error of the ratio

T2 sequence (P12821 30-1306 H988K/H992K): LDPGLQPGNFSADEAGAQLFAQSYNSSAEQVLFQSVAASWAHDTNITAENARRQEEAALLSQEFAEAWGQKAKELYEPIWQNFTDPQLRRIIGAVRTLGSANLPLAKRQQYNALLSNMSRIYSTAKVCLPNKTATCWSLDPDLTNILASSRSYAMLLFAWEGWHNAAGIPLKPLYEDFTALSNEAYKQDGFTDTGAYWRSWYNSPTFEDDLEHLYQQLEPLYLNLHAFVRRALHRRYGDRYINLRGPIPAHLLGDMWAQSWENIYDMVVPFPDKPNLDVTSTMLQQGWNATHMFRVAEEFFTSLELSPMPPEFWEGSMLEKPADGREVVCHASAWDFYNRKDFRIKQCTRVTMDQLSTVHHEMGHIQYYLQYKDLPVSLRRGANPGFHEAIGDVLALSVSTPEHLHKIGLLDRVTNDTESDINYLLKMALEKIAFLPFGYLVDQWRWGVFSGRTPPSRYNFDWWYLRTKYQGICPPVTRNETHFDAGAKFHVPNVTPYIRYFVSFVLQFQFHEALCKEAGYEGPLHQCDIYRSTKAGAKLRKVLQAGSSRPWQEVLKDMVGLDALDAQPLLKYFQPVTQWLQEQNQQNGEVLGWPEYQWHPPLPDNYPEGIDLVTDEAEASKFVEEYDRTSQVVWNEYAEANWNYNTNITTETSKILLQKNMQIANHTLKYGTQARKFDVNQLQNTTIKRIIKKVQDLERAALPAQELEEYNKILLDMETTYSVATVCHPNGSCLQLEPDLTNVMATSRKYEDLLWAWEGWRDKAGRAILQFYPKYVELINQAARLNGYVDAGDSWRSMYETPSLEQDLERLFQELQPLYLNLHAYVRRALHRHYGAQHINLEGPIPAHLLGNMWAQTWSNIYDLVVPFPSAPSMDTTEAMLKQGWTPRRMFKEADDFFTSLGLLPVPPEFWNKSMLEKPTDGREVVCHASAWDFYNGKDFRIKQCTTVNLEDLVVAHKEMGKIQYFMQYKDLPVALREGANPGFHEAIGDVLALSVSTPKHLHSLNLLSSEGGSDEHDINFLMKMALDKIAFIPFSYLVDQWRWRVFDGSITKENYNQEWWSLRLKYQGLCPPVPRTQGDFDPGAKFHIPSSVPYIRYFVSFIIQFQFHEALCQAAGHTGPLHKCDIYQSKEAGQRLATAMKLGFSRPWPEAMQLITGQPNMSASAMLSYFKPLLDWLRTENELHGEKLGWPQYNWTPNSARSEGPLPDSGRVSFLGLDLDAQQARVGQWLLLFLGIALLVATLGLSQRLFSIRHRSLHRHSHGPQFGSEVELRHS
T1 sequence (P12821 30-1306 H390K/H394K): as the sequence (P12821 30-1306 H988K/H992K) above, with H361K, H365K, K959H, K963H counted along it
T4 sequence (P12821 30-658): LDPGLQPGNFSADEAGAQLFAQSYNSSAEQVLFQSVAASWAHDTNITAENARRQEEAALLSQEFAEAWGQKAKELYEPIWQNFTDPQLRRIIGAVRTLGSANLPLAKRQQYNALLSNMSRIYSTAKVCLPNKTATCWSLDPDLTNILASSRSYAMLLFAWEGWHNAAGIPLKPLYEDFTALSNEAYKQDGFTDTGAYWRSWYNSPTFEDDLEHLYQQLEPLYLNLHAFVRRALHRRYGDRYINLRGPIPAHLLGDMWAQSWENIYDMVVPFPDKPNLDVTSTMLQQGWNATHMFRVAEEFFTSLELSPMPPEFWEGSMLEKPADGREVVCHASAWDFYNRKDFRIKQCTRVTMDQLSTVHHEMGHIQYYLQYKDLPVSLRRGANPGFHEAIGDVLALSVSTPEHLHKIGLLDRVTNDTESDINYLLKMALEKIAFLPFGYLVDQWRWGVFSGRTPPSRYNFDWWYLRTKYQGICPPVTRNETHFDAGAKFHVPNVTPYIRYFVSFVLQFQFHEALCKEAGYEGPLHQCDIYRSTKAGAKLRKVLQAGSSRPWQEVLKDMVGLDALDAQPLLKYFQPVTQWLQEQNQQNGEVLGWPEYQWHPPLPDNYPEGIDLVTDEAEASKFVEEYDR
T3 sequence (P12821 30-1306): as the sequence (P12821 30-1306 H988K/H992K) above, with K959H, K963H counted along it
Sequence of CC‐sACE (P12821 643-1222 limits assumed): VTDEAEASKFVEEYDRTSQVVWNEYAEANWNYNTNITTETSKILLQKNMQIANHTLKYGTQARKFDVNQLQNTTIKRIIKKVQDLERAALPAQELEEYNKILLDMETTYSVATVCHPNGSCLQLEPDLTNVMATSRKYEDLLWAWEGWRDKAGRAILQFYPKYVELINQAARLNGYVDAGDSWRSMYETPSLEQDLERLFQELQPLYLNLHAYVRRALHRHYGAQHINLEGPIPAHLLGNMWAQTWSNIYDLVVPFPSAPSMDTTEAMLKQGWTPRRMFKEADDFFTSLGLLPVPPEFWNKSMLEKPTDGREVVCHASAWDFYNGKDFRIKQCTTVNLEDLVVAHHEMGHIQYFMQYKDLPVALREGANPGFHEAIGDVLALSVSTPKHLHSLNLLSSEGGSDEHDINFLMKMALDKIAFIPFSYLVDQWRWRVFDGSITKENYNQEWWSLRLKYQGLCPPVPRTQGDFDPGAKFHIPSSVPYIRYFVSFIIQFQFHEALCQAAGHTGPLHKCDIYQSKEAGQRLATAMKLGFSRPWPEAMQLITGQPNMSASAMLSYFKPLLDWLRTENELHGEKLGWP

In the case of Cbz-Phe-His-Leu [ACE substrate], the “effect of the presence of the N‐domain on hydrolysis” value [1] is listed as “regulatory effects”.
“Abz‐FRHDSG(Q)‐EDDnp [Aβ(4–10)Q, fluorogenic Aβ(4–10) peptide, Abz donor, EDDnp quencher attached to additional Gln]” showed a K m ([2]; mean ± SEM) of 11.50 ± 3.03 µM, a V max ([2]; mean ± SEM) of 0.12 ± 0.01 and a k cat ([2]; mean ± SEM) of 0.08 ± 0.01 s⁻¹. For the same substance, the “k cat/K m” value [2, 9] was 0.08 ± 0.02 M^−1·s^−1 × 10^5, the K m ([3]; mean ± SEM) was 42.43 ± 3.92 µM and the V max ([3]; mean ± SEM) was 3.23 ± 0.20. The k cat ([3]; mean ± SEM) was 0.36 ± 0.02 s⁻¹, the “k cat/K m” value [3, 9] was 0.09 M^−1·s^−1 × 10^5 and 0.09 ± 0.01 M^−1·s^−1 × 10^5 and the “hydrolysis by CC‐sACE” value [4] was “almost no hydrolysis”. The “cleavage site (bond)” value [5] was “Asp7‐Ser8”, the interdomain cooperativity [6] was “This is also true for the Aβ(4–10)Q substrate, although to a much lesser extent” and the K m ([7]; mean ± SEM) was 22.20 ± 3.23 µM. The V max ([7]; mean ± SEM) was 0.29 ± 0.02, the k cat ([7]; mean ± SEM) was 0.48 ± 0.04 s⁻¹ and the “k cat/K m” value [7, 9] was 0.22 M^−1·s^−1 × 10^5 and 0.22 ± 0.04 M^−1·s^−1 × 10^5. The K m ([8]; mean ± SEM) was 22.90 ± 3.45 µM, the V max ([8]; mean ± SEM) was 0.09 ± 0.01 and the k cat ([8]; mean ± SEM) was 0.06 ± 0.01 s⁻¹. For the same substance, the “k cat/K m” value [8, 9] was 0.03 ± 0.01 M^−1·s^−1 × 10^5.
For (Abz)‐LFK(Dnp)‐OH, the “effect of the presence of the N‐domain on hydrolysis” value [1] is listed as “regulatory effects”.
In the case of “angiotensin‐(1‐7) (DRVYIHP; Angiotensin 1-7; UniProt P01019 25-31, looked up, fragment) [physiological substrate]”, the interdomain cooperativity [1] is given as “showed a similar result for angiotensin I and angiotensin‐(1‐7) but not angiotensin‐(1‐9)”.
In the case of “bradykinin (RPPGFSPFR; Bradykinin; UniProt P01042 381-389, looked up) [vasodilatory peptide, physiological substrate]”, the “degree of cooperativity between domains” value ([1]; compared with many synthetic peptides) is listed as “considerably less than many synthetic peptides”.
In the case of “angiotensin I (DRVYIHPFHL; Angiotensin-1; UniProt P01019 25-34, looked up) [physiological ACE substrate]”, the interdomain cooperativity [1] is given as “showed a similar result for angiotensin I and angiotensin‐(1‐7) but not angiotensin‐(1‐9)”.
